Measured values published in patent US8084596B2, “Regulated apoptosis” (The Board of Trustees of the Leland Stanford Junior …, priority 1993, dated 2011).

Target: T1, myristoylated Fas-FKBP12 fusion protein (MFF3E) (Homo sapiens, UniProt P25445)
T1 construct: expressed in transfected cells; host or cells: Jurkat T cells stably transformed with large T-antigen, transient transfection
Type: cell-based

T1 sequence (P25445 with tags, fused parts or gaps): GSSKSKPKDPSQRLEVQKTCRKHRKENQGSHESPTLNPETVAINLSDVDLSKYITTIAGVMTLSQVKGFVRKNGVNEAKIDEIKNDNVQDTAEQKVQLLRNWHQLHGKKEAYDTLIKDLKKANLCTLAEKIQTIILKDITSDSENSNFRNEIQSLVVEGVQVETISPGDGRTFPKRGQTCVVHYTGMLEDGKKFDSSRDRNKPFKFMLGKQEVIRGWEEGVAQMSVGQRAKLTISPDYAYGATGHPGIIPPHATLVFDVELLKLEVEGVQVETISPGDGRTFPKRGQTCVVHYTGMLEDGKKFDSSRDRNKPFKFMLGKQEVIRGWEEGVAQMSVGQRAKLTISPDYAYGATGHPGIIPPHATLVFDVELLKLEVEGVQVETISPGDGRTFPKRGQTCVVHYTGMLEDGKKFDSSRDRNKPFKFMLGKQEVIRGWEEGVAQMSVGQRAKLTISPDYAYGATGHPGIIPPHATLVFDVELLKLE

Substance: FK1012-A (p-xylylenediamine bridge) [FK1012A]
- LD50 for mediated death of cells: 15 nM
